Laboratory results as given in PMC12613848, “First in human phase 1 study of DT2216, a selective BCL-xL degrader, in patients with relapsed/refractory solid malignancies” (Journal of Hematology & Oncology, 2025).
Entries after “also recorded” stand apart in the source; their conditions may differ.

Legend:
advanced solid tumors = test: Efficacy in patients (RECIST v1.1, Kaplan-Meier survival); format: in vivo, human
Source text: The primary objective of the escalation phase was to determine the recommended phase 2 dose (RP2D) for DT2216. The secondary objectives were to characterize the adverse event (AE) profile, determine the pharmacokinetic profile (PK)/pharmacodynamic profile (PD) and describe preliminary evidence of efficacy using objective response rate (ORR), disease control rate (DCR), and progression-free survival (PFS) based on Response Evaluation Criteria in Solid Tumors (RECIST) v1.1. Exploratory objectives were to characterize the baseline and on-treatment expression of BCL-XL and VHL on blood lymphocytes, as well as other circulating biomarkers. Exploratory objectives included characterizing the baseline and on-treatment changes in platelet count and correlating them with DT2216 drug levels.
Patients were allowed a maximum of two intra-patient dose escalations. Patients received DT2216 by intravenous infusion on days 1 and 4 weekly for at least 4 weeks, with each cycle consisting of a 28-day cycle for a maximum duration of 1 year until disease progression, unacceptable toxicity, or other withdrawal criteria, as listed in the protocol. The extent of disease was evaluated using imaging studies and disease-appropriate tumor markers every 8 weeks from day 1 of the first cycle. RP2D was established based on MTD as well as other relevant data, including clinical signals of activity, PK, and PD data.
Premedication prior to each infusion was at the discretion of the investigator or according to institutional guidelines. Patient assessment and follow-up procedures can be found in the schedule of assessments in this study. The clinical response was evaluated using RECIST v1.1 per protocol. Blood samples were collected for PK analysis before and after post-infusion at defined intervals, along with platelet counts. Exploratory biomarkers include (but are not limited to) the assessment of BCL-XL and VHL levels in peripheral white blood cells (WBC).
Descriptive statistics were used to display dose escalation data and results. Continuous variables, including baseline characteristics, will be summarized by reporting the number of observations, mean, standard deviation, median, minimum, and maximum values. Categorical/discrete variables will be summarized using frequency tables that show the number and percentage of subjects within a category. Time-to-event analysis was performed using the Kaplan–Meier method. The overall response rate (ORR) and its 2-sided 95% confidence interval (CI) were calculated using the Clopper-Pearson method.

OVCAR4 cells (OC) = test: In vitro IC90, OVCAR4 cells; format: cell-based; conditions: Homo sapiens, OVCAR-4, DT2216 alone
Protocol: (§1) Fig. 7 Mean Plasma concentration of DT2216 in 4 patients infused with DT2216 at 0.4 mg/kg over time against in vitro inhibitory concentration 90%(IC90) for various cell lines. SCLC – small cell lung cancer; OC- ovarian carcinoma; T-ALL – T cell acute lymphoblastic leukemia, CTCL – Cutaneous T cell lymphoma TEXT PRINTED IN THE PICTURE: DT2216: IC90 (≈ 1000 nM) for H146 cells (SCLC); IC90 (< 1000 nM) for OVCAR4 cells (OC); IC90 (≈ 500 nM) for MOLT-4 cells (T-ALL); IC90 (< 100 nM) for OVCAR4 cells (OC)* (*In combination with Carboplatin); IC90 (≈ 100 nM) for H146 cells (SCLC)** (**In combination with SN-38/irinotecan); IC90 (30 nM) for Myla cells (CTCL)

H146 cells (SCLC) = test: In vitro IC90, H146 cells; format: cell-based; conditions: Homo sapiens, NCI-H146, DT2216 alone
Protocol: as §1

MOLT-4 cells (T-ALL) = test: In vitro IC90, MOLT-4 cells; format: cell-based; conditions: Homo sapiens
Protocol: as §1

BCL-XL = target: T1, BCL-XL (Homo sapiens, UniProt Q07817); test: BCL-XL levels in WBCs from a normal human donor after incubation with DT2216; format: cell-based; conditions: increasing concentrations, approximately 16 hours incubation, beta actin control
T1 construct: endogenous in cells; host or cells: peripheral leukocytes (WBC) of trial patients
T1 sequence (Q07817 whole entry): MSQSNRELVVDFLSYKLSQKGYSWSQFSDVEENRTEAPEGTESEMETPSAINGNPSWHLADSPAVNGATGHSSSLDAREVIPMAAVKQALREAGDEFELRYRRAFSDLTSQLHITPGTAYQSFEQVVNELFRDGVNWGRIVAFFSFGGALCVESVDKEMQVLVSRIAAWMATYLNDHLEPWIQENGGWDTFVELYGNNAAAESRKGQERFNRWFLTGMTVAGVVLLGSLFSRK
Protocol: Fig. 5 Levels of BCL-XL in WBCs from a normal human donor. They were determined after incubation with increasing concentrations of DT2216 as depicted in the figure for approximately 16 hours. […] BCL-XL expression after incubation with DT2216 in comparison to beta actin which acts as control in the figure

[1] = Cohort 1 (0.04 mg/kg), 1 treated
[2] = Cohort 2 (0.08 mg/kg), 1 treated
[3] = Cohort 3 (0.12 mg/kg), 1 treated
[4] = Cohort 4 (0.24 mg/kg), 7 treated
[5] = Cohort 5 (0.32 mg/kg), 6 treated
[6] = Cohort 6 (0.40 mg/kg), 4 treated

Cc1ncsc1-c1ccc([C@H](C)NC(=O)[C@@H]2C[C@@H](O)CN2C(=O)[C@@H](NC(=O)CCCCCC(=O)N2CCN(CC[C@H](CSc3ccccc3)Nc3ccc(S(=O)(=O)NC(=O)c4ccc(N5CCN(CC6=C(c7ccc(Cl)cc7)CCC(C)(C)C6)CC5)cc4)cc3S(=O)(=O)C(F)(F)F)CC2)C(C)(C)C)cc1 [DT2216]
patients who discontinued treatment because of objective disease progression (advanced solid tumors; 15/20 patients): 75% | stable disease (best response per RECIST v1.1), share of patients (advanced solid tumors; 20 patients, 0.04 to 0.4 mg/kg IV BIW): 20% | Treatment discontinuation: Clinical progression of neoplastic disease (subjects) (advanced solid tumors; [1]): 1 | Treatment discontinuation: Objective progression of neoplastic disease (subjects) (advanced solid tumors; [1]): 0 | Treatment discontinuation: Clinical progression of neoplastic disease (subjects) (advanced solid tumors; [2]): 0 | Treatment discontinuation: Objective progression of neoplastic disease (subjects) (advanced solid tumors; [2]): 1 | Treatment discontinuation: Clinical progression of neoplastic disease (subjects) (advanced solid tumors; [3]): 0 | Treatment discontinuation: Objective progression of neoplastic disease (subjects) (advanced solid tumors; [3]): 1 | Treatment discontinuation: Clinical progression of neoplastic disease (subjects) (advanced solid tumors; [4]): 2 | Treatment discontinuation: Objective progression of neoplastic disease (subjects) (advanced solid tumors; [4]): 4 | Treatment discontinuation: Clinical progression of neoplastic disease (subjects) (advanced solid tumors; [5]): 1 | Treatment discontinuation: Objective progression of neoplastic disease (subjects) (advanced solid tumors; [5]): 5 | Treatment discontinuation: Clinical progression of neoplastic disease (subjects) (advanced solid tumors; [6]): 0 | Treatment discontinuation: Objective progression of neoplastic disease (subjects) (advanced solid tumors; [6]): 4 | median overall survival (advanced solid tumors; Kaplan–Meier, 95% CI 4.0 – NE): 7.9 months | Treatment discontinuation: Clinical progression of neoplastic disease (subjects) (advanced solid tumors; Total, 20 treated): 4 | Treatment discontinuation: Objective progression of neoplastic disease (subjects) (advanced solid tumors; Total, 20 treated): 15 | median duration of response (stable disease) (advanced solid tumors; human, in vivo): 107 days | target liver lesions versus baseline (advanced solid tumors; one person, non-small cell lung adenocarcinoma, 0.24 mg/kg, after C4): decrease in size of target liver lesions | single-agent activity (advanced solid tumors; patients with different advanced solid tumors): did not demonstrate single-agent activity | IC90 (OVCAR4 cells (OC)): < 1000 nM | IC90 (H146 cells (SCLC)): ~1000 nM | IC90 (MOLT-4 cells (T-ALL)): ~500 nM | BCL-XL levels in normal human donor WBCs (BCL-XL): capable of completely degrading BCL-XL; also recorded: dose dependent degradation
